According to patent US5527809A, “Substituted imidazo[4,5-b]pyridines and benzimidazoles” (Bayer Aktiengesellschaft, priority 1993, dated 1996):

Columns and labels:
angiotensin II receptor = biological target: T1, angiotensin II receptor (Bos taurus, UniProt P25104); assay: Interaction with the angiotensin II receptor in membrane fractions of the adrenal gland cortex (bovine), 3H-angiotensin II binding; conditions: bovine adrenal gland cortex membranes; 3H-angiotensin II 3-5 nM; 60 min, room temperature; read-out: IC50 (50% inhibition of the specific binding of the radioligand)
T1 construct: partially purified membrane fractions of bovine AGC; from tissue; host or cells: bovine adrenal gland cortex, partially purified membrane fractions
T1 sequence (P25104 1-359): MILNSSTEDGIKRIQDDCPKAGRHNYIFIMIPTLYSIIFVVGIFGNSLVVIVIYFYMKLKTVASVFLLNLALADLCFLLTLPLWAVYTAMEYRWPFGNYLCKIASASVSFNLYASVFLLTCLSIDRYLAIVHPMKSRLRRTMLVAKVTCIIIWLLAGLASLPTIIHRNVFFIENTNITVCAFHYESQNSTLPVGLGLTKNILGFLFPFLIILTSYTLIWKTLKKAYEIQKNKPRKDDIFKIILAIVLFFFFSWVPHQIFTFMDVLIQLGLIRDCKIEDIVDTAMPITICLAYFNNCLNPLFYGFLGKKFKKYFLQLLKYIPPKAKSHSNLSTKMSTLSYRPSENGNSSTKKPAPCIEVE
Source text: Interaction of the compounds according to the invention with the angiotensin II receptor in membrane fractions of the adrenal gland cortex (bovine)
Bovine adrenal gland cortices (AGC), which have been freshly removed and carefully freed from medulla from capsule, are comminuted in sucrose solution (0.32M) with the aid of an Ultra-Turrax (Janke & Kunkel, Staufen i.B.) to give a coarse membrane homogenate and are partially purified in two centrifugation steps to give membrane fractions. The receptor binding investigations are carried out on partially purified membrane fractions of bovine AGC using radioactive angiotensin II in an assay volume of 0.25 ml, which specifically contains the partially purified membranes (50-80 μg), ^3 H-angiotensin II (3-5 nM), test buffer solution (50 mM Tris, pH 7.2), 5 mM MgCl2 and the substances to be investigated. After an incubation time of 60 min at room temperature, the unbound radioactivity of the samples is separated by means of moistened glass fibre filters (Whatman GF/C) and the bound radioactivity is measured […] in a scintillation cocktail after washing the protein with ice-cold buffer solution (50 mM Tris/HCl, pH 7.4, 5% PEG 6000). […]

[1] = tested on: isolated rabbit aorta (contraction induced by angiotensin II); assay: Inhibition of the contraction induced by agonists in isolated rabbit aorta rings (angiotensin II); conditions: Oryctolagus cuniculus, based on the 3rd = submaximal agonist concentration, read-out: IC50 (50% inhibition of agonist-induced contraction)
Method: Investigation of the inhibition of the contraction induced by agonists
Rabbits of either sex are stunned by a blow to the back of the head and exsanguinated, or in some cases anaesthetized with Nembutal (about 60-80 mg/kg i.v.) and sacrificed by opening the thorax. The thoracic aorta is removed, freed from adhering connective tissue, divided into ring segments 1.5 mm wide and individually transferred under an initial loading of about 3.5 g to 10 ml organ baths containing Krebs-Henseleit nutrient solution, which is temperature-controlled at 37° C. and aerated with 95% 02 / 5% CO2, of the following composition: 119 mmol/l NaCl; 2.5 mmol/l CaCl2 ×2H2 O; 1.2 mmol/l KH2 PO4; 10 mmol/l glucose; 4.8 mmol/l KCl; 1.4 mmol/l MgSO4 ×7 H2 O and 25 mmol/l NaHCO3.
The contractions are detected isometrically by Statham UC2 cells by means of bridge amplifiers (ifd Mulheim or DSM Aalen) and digitalized and assessed by means of A/D converters (System 570, Keithley Munich). Agonist dose response curves (DRC) are carried out hourly. With each DRC, 3 or 4 individual concentrations are applied to the baths at a 4 min interval. After the end of the DRC and subsequent washing-out cycles (16 times in each case about 5 sec/min with the abovementioned nutrient solution), a 28-minute rest or incubation phase follows, during which the contractions as a rule reach the starting value again. […]

smooth muscle cells = assay: Inhibition of the proliferation of smooth muscle cells (3H-thymidine incorporation); assay type: cell-based; conditions: rat aorta smooth muscle cells; thymidine incorporation produced by 10% FCS; read-out: IC50 (half-maximum inhibition of thymidine incorporation)
Method: Investigation of the inhibition of the proliferation of smooth muscle cells by the compounds according to the invention
To determine the antiproliferation action of the compounds, smooth muscle cells are used which are obtained from aortas of rats by the media explant technique [R. Ross, J. Cell. Biol. 50, 172, 1971]. The cells are inoculated in suitable culture dishes, as a rule 96-hole plates, and cultured in 5% CO2 at 37° C. for 2-3 days in medium 199 containing 7.5% FCS and 7.5% NCS, 2 mM L-glutamine and 15 mM HEPES, pH 7.4. The cells are then synchronized by withdrawal of serum for 2-3 days and then stimulated into growth with serum or other factors. Test compounds are simultaneously added. After 16-20 hours, 1 μCi of ^3 H-thymidine is added and after a further 4 hours the incorporation of this substance into the TCA-precipitatable DNA of the cells is determined. To determine the IC50 values, the active compound concentration is calculated which, on sequential dilution of the active compound, causes half-maximum inhibition of the thymidine incorporation produced by 10% FCS.

IC50 (angiotensin II receptor) [nM] | IC50 [1] [nM] | Structure (SMILES) | IC50 (smooth muscle cells) [nM]
210 |  | Cc1cc(C)c2nc(C3CC3)n(Cc3ccc(C(C(=O)O)C(C)C)cc3)c2n1 (centres unmarked) [Example 2] | 
16 | 61 | Cc1ccc(S(=O)(=O)NC(=O)Cc2ccc(Cn3c(C4CC4)nc4c(C)cc(C)nc43)cc2)cc1 [Example 9] | 
 |  | O=C(N[C@H](CO)c1ccccc1)C(c1ccc(Cn2c(-c3ccccc3)nc3cccnc32)cc1)C1CCCCCC1 (some centres unmarked) [Example 14] | 120
 |  | Cc1ccnc2c1nc(-c1ccccc1)n2Cc1ccc(C(C(=O)NC(C(N)=O)c2ccccc2)C2CCCCCC2)cc1 (centres unmarked) [Example 23] | 43
